The test system of data set [1] is Digitaria sanguinalis (DIGSA). The data set is described as follows: Example A pre-emergence herbicidal activity, glasshouse pot test. The note with it: 480 h, rate 500 g/ha, evaluated 20 days later, 100=total damage to plant, 0=no damage to plant. The class given is in vivo. In a few lines: (§1)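 Damage score 0 (none) to 100 (total), read 20 days after treatment. Pots of seeds in standard soil sprayed one day after sowing with aqueous spray of compound formulated in acetone/Emulsogen EL/N-methylpyrrolidone/dipropylene glycol monomethyl ether/X-77.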

For data set [2], the system named is Alopecurus myosuroides (ALOMY). Described as above. It counts as in vivo. The note with it: 480 h, rate 500 g/ha, evaluated 20 days later, 100=total damage to plant, 0=no damage to plant. Summed up:
as §1

Data set [3] concerns Setaria faberi (SETFA). Described as above. The class given is in vivo. The note with it: 480 h, rate 500 g/ha, evaluated 20 days later, 100=total damage to plant, 0=no damage to plant. In a few lines: as §1
The subject of data set [4] is Lolium perenne (LOLPE). The data set is described as above. The class given is in vivo. The note with it: 480 h, rate 500 g/ha, evaluated 20 days later, 100=total damage to plant, 0=no damage to plant. Summed up: as §1
Data set [5] has as its system Echinochloa crus-galli (ECHCG). The data set is described as above. It counts as in vivo. The note with it: 480 h, rate 500 g/ha, evaluated 20 days later, 100=total damage to plant, 0=no damage to plant. In a few lines:
as §1

For data set [6], the system named is Avena fatua (AVEFA). The data set is described as above. The class given is in vivo. The note with it: 480 h, rate 500 g/ha, evaluated 20 days later, 100=total damage to plant, 0=no damage to plant. Summed up: as §1
Data set [7] has as its system Digitaria sanguinalis (DIGSA). The data set is described as follows: Example A post-emergence herbicidal activity, glasshouse pot test. It counts as in vivo. The note with it: 360 h, evaluated 15 days after spraying, read-out: herbicidal damage DIGSA (100=total damage to plant; 0=no damage to plant); for pest or weed control at 500 g/ha: rate 500 g/ha. Summed up: (§2)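 Test species were sown in standard soil in pots and grown 10 days under controlled glasshouse conditions, then sprayed with an aqueous solution of the active ingredient formulated in acetone with emulsifier/N-methylpyrrolidone/dipropylene glycol monomethyl ether/X-77. Damage was scored 15 days later (0 = none, 100 = total).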

For data set [8], the system named is Alopecurus myosuroides (ALOMY). Described as above. It counts as in vivo. The note with it: 360 h, evaluated 15 days after spraying, read-out: herbicidal damage ALOMY (100=total damage to plant; 0=no damage to plant); for pest or weed control at 500 g/ha: rate 500 g/ha. Summed up:
as §2

Data set [9] has as its system Setaria faberi (SETFA). The data set is described as above. The class given is in vivo. The note with it: 360 h, evaluated 15 days after spraying, read-out: herbicidal damage SETFA (100=total damage to plant; 0=no damage to plant); for pest or weed control at 500 g/ha: rate 500 g/ha. In a few lines:
as §2

Data set [10] deals with Lolium perenne (LOLPE). The data set is described as above. The class given is in vivo. The note with it: 360 h, evaluated 15 days after spraying, read-out: herbicidal damage LOLPE (100=total damage to plant; 0=no damage to plant); for pest or weed control at 500 g/ha: rate 500 g/ha. Summed up: as §2
Data set [11] concerns Echinochloa crus-galli (ECHCG). The description is as above. It counts as in vivo. The note with it: 360 h, evaluated 15 days after spraying, read-out: herbicidal damage ECHCG (100=total damage to plant; 0=no damage to plant); for pest or weed control at 500 g/ha: rate 500 g/ha. Summed up: as §2
In data set [12] the test system is Avena fatua (AVEFA). The description is as above. It counts as in vivo. The note with it: 360 h, evaluated 15 days after spraying, read-out: herbicidal damage AVEFA (100=total damage to plant; 0=no damage to plant); for pest or weed control at 500 g/ha: rate 500 g/ha. Summed up: as §2
In data set [13] the test system is Amaranthus retroflexus (AMARE). The data set is described as follows: Example B post-emergence herbicidal activity, glasshouse pot test. The note with it: 312 h, rate 1000 g/ha, evaluated after 13 days, read-out: herbicidal damage AMARE (100=total damage to plant; 0=no damage to plant). The class given is in vivo. In a few lines: (§3)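 Plants grown 8 days in soil pots (glasshouse, 24/16 °C day/night, 14 h light, 65% humidity) were sprayed with aqueous solution of technical active ingredient formulated in acetone/water 50:50 with 0.5% Tween 20. Damage scored after 13 days on 0–100 scale (100 = total damage, 0 = none).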

Data set [14] concerns Alopecurus myosuroides (ALOMY). The data set is described as above. The class given is in vivo. The note with it: 312 h, rate 1000 g/ha, evaluated after 13 days, read-out: herbicidal damage ALOMY (100=total damage to plant; 0=no damage to plant). Summed up: as §3
Data set [15] has as its system Setaria faberi (SETFA). The description is as above. The note with it: 312 h, rate 1000 g/ha, evaluated after 13 days, read-out: herbicidal damage SETFA (100=total damage to plant; 0=no damage to plant). The class given is in vivo. In a few lines:
as §3

In data set [16] the test system is Solanum nigrum (SOLNI). The description is as above. The note with it: 312 h, rate 1000 g/ha, evaluated after 13 days, read-out: herbicidal damage SOLNI (100=total damage to plant; 0=no damage to plant). It counts as in vivo. In a few lines: as §3
In data set [17] the test system is Echinochloa crus-galli (ECHCG). The data set is described as above. It counts as in vivo. The note with it: 312 h, rate 1000 g/ha, evaluated after 13 days, read-out: herbicidal damage ECHCG (100=total damage to plant; 0=no damage to plant). In a few lines: as §3
For data set [18], the system named is Avena fatua (AVEFA). The description is as above. The class given is in vivo. The note with it: 312 h, rate 1000 g/ha, evaluated after 13 days, read-out: herbicidal damage AVEFA (100=total damage to plant; 0=no damage to plant). In a few lines: as §3
Data set [19] deals with Amaranthus retroflexus (AMARE). The data set is described as follows: Example B pre-emergence herbicidal activity, glasshouse pot test. The note with it: 312 h, rate 1000 g/ha, evaluated after 13 days, read-out: herbicidal damage AMARE (100=total damage to plant; 0=no damage to plant). The class given is in vivo. Summed up:
(§4)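 Pots sown in standard soil were sprayed one day after sowing (pre-emergence) with compound formulated in acetone/water (50:50) containing 0.5% Tween 20. Plants were grown in a glasshouse at 24/16 °C day/night, 14 h light, 65% humidity, watered twice daily. Damage was scored after 13 days on a 0–100 scale (100 = total damage).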

The test system of data set [20] is Alopecurus myosuroides (ALOMY). The data set is described as above. The note with it: 312 h, rate 1000 g/ha, evaluated after 13 days, read-out: herbicidal damage ALOMY (100=total damage to plant; 0=no damage to plant). It counts as in vivo. In a few lines: as §4
The subject of data set [21] is Setaria faberi (SETFA). The data set is described as above. The class given is in vivo. The note with it: 312 h, rate 1000 g/ha, evaluated after 13 days, read-out: herbicidal damage SETFA (100=total damage to plant; 0=no damage to plant). Summed up: as §4
Data set [22] relates to Solanum nigrum (SOLNI). The description is as above. The class given is in vivo. The note with it: 312 h, rate 1000 g/ha, evaluated after 13 days, read-out: herbicidal damage SOLNI (100=total damage to plant; 0=no damage to plant). In a few lines:
as §4

The subject of data set [23] is Echinochloa crus-galli (ECHCG). The data set is described as above. It counts as in vivo. The note with it: 312 h, rate 1000 g/ha, evaluated after 13 days, read-out: herbicidal damage ECHCG (100=total damage to plant; 0=no damage to plant). In a few lines:
as §4

Data set [24] has as its system Avena fatua (AVEFA). The description is as above. The class given is in vivo. The note with it: 312 h, rate 1000 g/ha, evaluated after 13 days, read-out: herbicidal damage AVEFA (100=total damage to plant; 0=no damage to plant). In a few lines:
as §4

The melting point is the temperature of the solid-liquid transition. The molecule `Cc1cc(C)c(C2=C(O)CC(CC3CCOC3)CC2=O)c(C)c1` (centres unmarked) [Compound A-1, 2-(2,4,6-trimethylphenyl)-5-(tetrahydrofuran-3-ylmethyl)cyclohexane-1,3-dione] returned a melting point of 62 to 64 °C. Also, the pest or weed control at 500 g/ha in [1] was determined as 100%. Moreover, the pest or weed control at 500 g/ha in [2] is 70%. Besides, the pest or weed control at 500 g/ha in the data set with Setaria faberi (SETFA) [3] came out at 90%. Moreover, in the data set on Lolium perenne (LOLPE) [4], the pest or weed control at 500 g/ha came out at 80%. In data set [5], this molecule registered a pest or weed control at 500 g/ha of 50%. The molecule also came in with a pest or weed control at 500 g/ha in the data set with Avena fatua (AVEFA) [6] of 40%. In addition, in data set [7], the pest or weed control at 500 g/ha was 100%. Further, the pest or weed control at 500 g/ha in [8] was 70%. In addition, the pest or weed control at 500 g/ha with Setaria faberi (SETFA) [9] was 100%. For the same molecule, the pest or weed control at 500 g/ha in the data set on Lolium perenne (LOLPE) [10] is 70%. Also, the pest or weed control at 500 g/ha in data set [11] turned out to be 90%. Also, the pest or weed control at 500 g/ha in the data set on Avena fatua (AVEFA) [12] stood at 80%.
On to `CCc1ccccc1C1=C(O)CC(CC2CCOCC2)CC1=O` (centres unmarked) [Compound A-31], for which the pest or weed control at 1000 g/ha in data set [13] is 0%; in data set [14] it was 100%; in the data set with Setaria faberi (SETFA) [15], 100%; in the data set with Solanum nigrum (SOLNI) [16] it was 0%; in data set [17] it was 100%; in the data set with Avena fatua (AVEFA) [18] it was 90%. For the same molecule, the pest or weed control at 1000 g/ha in data set [19] was 0%; in data set [20], 100%; in the data set with Setaria faberi (SETFA) [21] it was 100%; in the data set with Solanum nigrum (SOLNI) [22], 0%; in data set [23], 100%; in the data set with Avena fatua (AVEFA) [24] it was 40%. Further, the pest or weed control at 500 g/ha was 100% in data set [1]; 60% in data set [2]; 100% with Setaria faberi (SETFA) [3]; 40% with Lolium perenne (LOLPE) [4]; 70% in [5]; 50% in the data set with Avena fatua (AVEFA) [6]. Moreover, the pest or weed control at 125 g/ha was found to be 30% in data set [7] (rate 125 g/ha); 60% in data set [8] (rate 125 g/ha); 40% in the data set with Setaria faberi (SETFA) [9] (rate 125 g/ha); 60% with Lolium perenne (LOLPE) [10] (rate 125 g/ha); 50% in [11] (rate 125 g/ha); 60% in the data set on Avena fatua (AVEFA) [12] (rate 125 g/ha).
Turning to `Cc1cc(C)c(C2=C(OC(=O)C(C)(C)C)CC(CC3CCOC3)CC2=O)c(C)c1` (centres unmarked) [Compound B-1, 2,2-dimethylpropionic acid 3-oxo-5-(tetrahydrofuran-3-ylmethyl)-2-(2,4,6-trimethylphenyl)cyclohex-1-enyl Ester], the melting point fell in the range of 108 to 110 °C. This molecule also displayed a pest or weed control at 500 g/ha in data set [1] of 100%. In data set [2], this molecule displayed a pest or weed control at 500 g/ha of 90%. Further, the pest or weed control at 500 g/ha in the data set on Setaria faberi (SETFA) [3] was 80%. Also, the pest or weed control at 500 g/ha in the data set on Lolium perenne (LOLPE) [4] was 90%. This molecule also returned a pest or weed control at 500 g/ha in data set [5] of 100%. This molecule also came in with a pest or weed control at 500 g/ha with Avena fatua (AVEFA) [6] of 50%. In addition, in data set [7], the pest or weed control at 500 g/ha turned out to be 90%. Moreover, in data set [8], the pest or weed control at 500 g/ha came to 50%. The pest or weed control at 500 g/ha in the data set with Setaria faberi (SETFA) [9] is 80%. The pest or weed control at 500 g/ha in the data set on Lolium perenne (LOLPE) [10] is 60%. Moreover, the pest or weed control at 500 g/ha in [11] was determined as 70%. Also, the pest or weed control at 500 g/ha with Avena fatua (AVEFA) [12] was found to be 0%.

Source of the values: patent publication US8735322B2, “Herbicides” (Syngenta Limited, priority 2008, dated 2014).
